{"source": "patent US20240374546A1", "about": "“USES AND METHODS FOR PROMOTING INCREASED MITOCHONDRIAL MASS AND FUNCTION” (Brightseed, Inc., priority 2022, published 2024)", "key": {"cleaved caspase3": {"system": "cleaved caspase3", "experiment": "Cleaved caspase3 immunostaining", "format": "in vivo, mouse", "details": "mice fed HFD with vs without NCT", "protocol": "Frozen liver sections were permeabilized using 0.3% Triton-X and incubated in antigen retrieval solution (Antigen retrieval citrate, Biogenex) at sub-boiling temperature for 10 min. Subsequently, sections were incubated with blocking buffer containing 5% normal donkey serum (Jackson Immuno Research) followed by incubation overnight at 4° C. with mouse anti-HNF4α monoclonal antibody (1:800, Cat #PP-H1415-00, R&D Systems), rabbit polyclonal anti-VDAC antibody (1:400, cat #PA1-954A, Invitrogen) and cleaved caspase3 antibody (1:500, cat #9664, Cell Signaling). Sections were washed and incubated for 1 hour at room temperature with anti-mouse secondary antibody coupled with Alexa fluor 488 (1:400, Invitrogen) and antirabbit secondary antibody coupled with rhodamine red. Nuclei were visualized by counterstaining with DAPI (40,6-diamidino-2-phenylindole, Sigma Aldrich). Slides were mounted using fluorescence mounting medium and images were obtained at 40× magnification using an Olympus IX71 fluorescence microscope. Fluorescence intensity of HNF4α-stained nuclei and VDAC stained mitochondria was calculated using MetaMorph TL software (version 7.6.5.0, Olympus). Fold change was calculated by normalizing to values from mice fed NC. […]"}, "IL-6": {"system": "IL-6", "experiment": "ELISA for IL-6 secreted into medium of primary human hepatocytes", "format": "cell-based", "details": "NCT 5, 15, 40 μM", "protocol": "Experiments with primary human hepatocytes were performed by CN-Bio (Cambridge, UK). Briefly, primary human hepatocytes (PHHs), human Kupffer cells (HKs) and human stellate cells (HSCs) were seeded onto CN-Bio's PhysioMimix LC12 MPS culture plates at 6×10^5 cells for PHHs and 6×10^4 cells for HKs and HSCs in 1.6 ml of CN-Bio's HEP-lean media with 5% FCS. Throughout the experiment the cells were maintained at a flow rate of 1 μl/s. After 24 hours (Day 1) of seeding, the media was changed to HEP-lean media and the cells were incubated until day 4 to allow the cells to form microtissues. At day 4 post seeding, media was changed to HEP-fat media and treated with DMSO or NCT (5, 15, 40 μM). Media was replaced on days 6 and 8. Cells were harvested on day 10 for RNA extraction and culture media was collected for ELISA analysis."}, "[1]": {"system": "fatty acid oxidation (FAO)", "experiment": "Fatty acid oxidation assay in liver lysate", "format": "in vivo, mouse", "details": "HFD+NCT vs HFD", "protocol": "FAO in liver lysate was measured according to manufacturer's instructions using a calorimetric assay kit (Cat #E-141, Biomedical Research Service Centre, State University of New York, Buffalo, NY).\nThe large weight difference between the HFD and HFD+NCT groups in conjunction with decreased subcutaneous and hepatic adiposity was striking. There are only two routes of fat elimination; in the stool by malabsorption, which it was ruled out (FIG. 1E) and by oxidation. Thus, it was hypothesized that NCT was inducing an increase in FAO. Quantification of FAO was done using an assay that measures NADH by the conversion of iodonitrotetrazolium (INT) to INT-Formazan mediated by the NADH-requiring enzyme diaphorase. Performing the assay in the presence and absence of added octanoyl-CoA, which is converted through fatty acid β-oxidation to acetyl-CoA with conversion of NAD+ to NADH, provides specificity for FAO. The level of fatty acid oxidation is determined as the INT-formazan level in the presence of octanoyl CoA minus the level in the absence of octanoyl CoA."}, "palmitate-loaded cells": {"system": "palmitate-loaded cells", "experiment": "Fat clearance from palmitate-loaded cells", "format": "cell-based", "details": "in vitro"}, "T6PNE cells": {"system": "T6PNE cells", "experiment": "Nitric oxide assay, T6PNE cells treated with palmitate", "format": "cell-based", "details": "palmitate plus 15 μM NCT, 3 days, normalized to protein", "protocol": "T6PNE cells were maintained in RPMI (5.5 mM glucose, Corning) supplemented with 10% fetal bovine serum (FBS, Sigma-Aldrich) and 1% penicillin-streptomycin (pen-strep, Gibco) in 5% CO2 at 37° C. Cells were treated with […] palmitate plus 0 or 15 μM NCT for 3 days in 10 cm plates and harvested with 500 μl PBS. For tissue specimens, snap frozen mouse liver was weighed and homogenized with PBS. NO was measured with the QuantiChrom Nitric Oxide Assay kit (D2NO-100, BioAssay Systems). Homogenized samples (150 μl) were processed for deproteination with 8 μl ZnSO4 and 8 μl NaOH. For normalization, an aliquot of samples from T6PNE cells was taken for BCA assay before deproteination. Samples and standard from kit incubated with reagents for 20 min at 60° C. and measured OD 540 nm.\nPalmitate (150 mM) (Sigma-Aldrich) was prepared in 50% ethanol and precomplexed with 15% fatty acid-free BSA (Research Organics, Cleveland, OH, USA) in a 37° C. water shaker. […] precomplexed palmitate was used as a 12 mM stock solution for all assays with a final concentration of 0.12 mM palmitate in cell culture medium."}, "TNFα mRNA": {"system": "TNFα mRNA", "experiment": "qPCR mouse liver, TNFα mRNA", "format": "in vivo", "details": "HFD+NCT vs HFD", "protocol": "Total RNA was isolated from liver tissues and primary human hepatocytes using Trizol (Invitrogen). cDNA was amplified using 3 μg of total RNA using qScript cDNA SuperMix (Quanta BioSciences, Beverly, MA, USA). Quantitative real time PCR (RT-PCR) analysis was performed using SYBR® Select Master Mix (Applied Biosystems) and an ABI 7900HT thermal cycler (Applied Biosystems, Thermo Fisher Scientific). Ct values were normalized to 18s rRNA and are expressed as fold change over samples from mice fed NC or cultured human hepatocytes without NCT."}, "Microsomal stability": {"experiment": "Microsomal stability", "format": "in vitro ADME", "details": "human microsomes compared with rodent"}, "[2]": {"experiment": "Triglyceride analysis in liver, serum and stool", "format": "in vivo, mouse", "details": "HFD+NCT vs HFD", "protocol": "The TG level in mouse liver, serum and stool was measured according to manufacturer's instructions using the Triglyceride Calorimetric Assay Kit (Cat #10010303, Cayman Chemicals, USA). Liver and stool TG was normalized with liver and stool weight, respectively. Fold change was calculated by normalizing to values from mice fed NC."}}}
{"smiles": "O=C(/C=C/c1ccc(O)c(O)c1)NCCc1ccc(O)cc1", "note": "[NCT, N-transcaffeoyltyramine]", "values": [{"measurement": "Caspase 3, marker of apoptosis", "setting": "cleaved caspase3", "value": "no change"}, {"measurement": "IL-6 protein secreted by cultured human hepatocytes", "setting": "IL-6", "value": "reduced"}, {"measurement": "FAO activity in the presence of octanoyl CoA", "setting": "[1]", "value": "increase"}, {"measurement": "baseline activity in the absence of octanoyl CoA", "setting": "[1]", "value": "increase"}, {"measurement": "overall FAO activity (+octanoyl CoA minus −octanoyl CoA)", "setting": "[1]", "value": "unchanged"}, {"measurement": "fat clearance from palmitate-loaded cells", "setting": "palmitate-loaded cells", "value": "induced fat clearance"}, {"measurement": "nitric oxide (NO) in cultured cells treated with palmitate", "setting": "T6PNE cells", "value": "decreased"}, {"measurement": "TNFα mRNA in mouse liver", "setting": "TNFα mRNA", "value": "significantly reduced"}, {"measurement": "microsomal stability, human versus rodent microsomes", "setting": "Microsomal stability", "value": "much more stable"}, {"measurement": "hepatic TG", "setting": "[2]; normalized to liver weight", "value": "lower TG"}, {"measurement": "circulating TG", "setting": "[2]; serum, 10 weeks", "value": "no difference"}]}
